Source: US5213962A, “Purification, detection and methods of use of protease Nexin-2” (The Regents of the University of California, priority 1992, dated 1993)

Tested on: platelets
Experiment: Secretion of PN-2/βAPP from platelets after activation by agonists
Assay type: cell-based
Settings: freshly washed platelets, 10 minutes
Method: Secretion on PN-2/βAPP from platelets after activation by the agonists collagen or thrombin was studied. Briefly, fresh platelets washed by albumin density gradient centrifugation and gel filtration were incubated for 30 minutes at 37° C. in the absence or presence of the combined metabolic inhibitors antimycin A (15 μg/ml), 2-deoxy-D-glucose (30 mM), and D-gluconic acid δ-lactone (10 mM). The platelets were then placed into a cuvette 37° C. water bath with stirring at 1,200 rpm, and collagen (20 μg/ml or α-thrombin U/ml) was added. After 10 minutes, the samples were centrifuged at 12,000×g for 4 minutes and supernatants were collected. Aliquots were removed and quantitated for PN-2/βAPP by incubation with ^125 I-EGF BP and analysis of complex formation by SDS-PAGE and autoradiography as in Example 15. Autoradiograms were aligned with dried gels; ^125 I-EGF BP:PN-2/βAPP complexes were located, excised and quantitated in a […]. Aliquots were also quantitated for platelet markers as follows: total adenine nucleotide (ADP/ATP) secretion was measured by the method of Homsen et al., Anal. Biochem., 46:489 (1972); low affinity platelet factor 4 (LA-PF4) secretion was quantitated by the method of Rucinski et al., Blood, 53:47 (1979); and cytosolic lactate dehydrogenase (LDH) loss was assessed by the procedure of Wroblewski and Ladue, Proc. Soc. Exper. […]

Substance	secretion of total PN-2/βAPP present in the platelets
collagen	approximately one-half
thrombin	approximately one-half
